Measured values from US20160060352A1, “COMPOSITIONS AND METHODS FOR DETECTION AND TREATMENT OF HEPA[…]” (VIVENTIA BIO INC., priority 2013, published 2016).
In brackets after ≈: the same amount, converted by molar mass.

Key:
HLF = assay: MTS cell growth assay, HLF; format: cell-based; conditions: Homo sapiens, 48 h incubation
Description: (§1) Human HCC cell lines Hep3B, PLC/PRF/5, and SK-Hep1 were obtained from the American Type Culture Collection (Manassas, Va., USA). Other human HCC cell lines HuH-7, HuH-1, HepG2, HLE, and HLF were obtained from the Human Science Research Resources Bank (Osaka, Japan). HuH-7, HepG2, Hep3B, and SK-Hep1 cells were cultured in log growth phase in 1640 RPMI (Invitrogen, Carlsbad, Calif.) and HuH-1, HLE, HLF, and PLC/PRF/5, cells were cultured in Dulbecco's modified Eagle medium (Invitrogen) with 5% fetal bovine serum (Sigma, St. Louis, Mo.) for HLF cells or 10% FBS for the remaining cell lines. All media were supplemented with 1% PenStrep (Sigma). […]
(§2) HCC cell lines were seeded in 96-well plates at 3×10^3 cells per well in a total volume of 50 μl of culture media. […] Cell viability was monitored using CellTiter 96 AQueous One Solution Cell Proliferation Assay Kit (Promega) and half-maximal inhibitory concentration (IC50) values were calculated. The mean values and standard deviations of IC50 were calculated in triplicate for each cell line. […] The remaining viable cells were counted using a Cytorecon (GE Healthcare) after staining with trypan blue to exclude the dead cells. Each analysis was performed in triplicate, and the data expressed as means±standard deviations.

HLE = assay: MTS cell growth assay, HLE; format: cell-based; conditions: Homo sapiens, 48 h incubation
Description: as §1, §2

[1] = system: Ep-CAM^high cell lines (HuH-7, HepG2, Hep3B and HuH-1); assay: Sphere formation assay; format: cell-based, human; conditions: 48 h treatment (VB4-845 1-10 pM, 5-FU 1-5 μg/ml), 7 days of culture
Description: Briefly, 1×10^6 cells of HuH-7, HepG2, Hep3B and HuH-1 were seeded in four 10 cm dishes. […] After 48h, the medium was changed to drug-free medium and incubated for 24 h. After cell viability was confirmed by trypan blue exclusion, the remaining viable cells were collected and plated separately at 1×10^2 cells in low attachment plates (96-well Ultra Low Cluster Plate; Costar, Corning, N.Y.), and incubated in serum-free Dulbecco's modified Eagle medium/F12 medium (Invitrogen). Sphere formation was observed using AxioObserver (Carl Zeiss, Oberkochen, Germany), and the images were acquired digitally using AxioVision software (Carl Zeiss).

PLC/PRF/5 = assay: MTS cell growth assay, PLC/PRF/5; format: cell-based; conditions: Homo sapiens, 48 h incubation
Description: as §1, §2

HepG2 = assay: MTS cell growth assay, HepG2; format: cell-based; conditions: Homo sapiens, 48 h incubation
Description: (§3) Human HCC cell lines Hep3B, PLC/PRF/5, and SK-Hep1 were obtained from the American Type Culture Collection (Manassas, Va., USA). Other human HCC cell lines HuH-7, HuH-1, HepG2, HLE, and HLF were obtained from the Human Science Research Resources Bank (Osaka, Japan). HuH-7, HepG2, Hep3B, and SK-Hep1 cells were cultured in log growth phase in 1640 RPMI (Invitrogen, Carlsbad, Calif.) and HuH-1, HLE, HLF, and PLC/PRF/5, cells were cultured in Dulbecco's modified Eagle medium (Invitrogen) with 5% fetal bovine serum (Sigma, St. Louis, Mo.) for HLF cells or 10% FBS for the remaining cell lines. All media were supplemented with 1% PenStrep (Sigma). […] All cell lines were cultivated in a humidified incubator at 37° C. in 5% carbon dioxide and harvested with 0.05% trypsin-0.03% EDTA (Invitrogen).
(§4) HCC cell lines were seeded in 96-well plates at 3×10^3 cells per well in a total volume of 50 μl of culture media. […] Cell viability was monitored using CellTiter 96 AQueous One Solution Cell Proliferation Assay Kit (Promega) and half-maximal inhibitory concentration (IC50) values were calculated. The mean values and standard deviations of IC50 were calculated in triplicate for each cell line. […] Each analysis was performed in triplicate, and the data expressed as means±standard deviations.

HuH-7 = assay: MTS cell growth assay, HuH-7; format: cell-based; conditions: Homo sapiens, 48 h incubation
Description: as §3, §4

Hep3B = assay: MTS cell growth assay, Hep3B; format: cell-based; conditions: Homo sapiens, 48 h incubation
Description: as §3, §4

Ep-CAM^low cell lines = assay: Cell proliferation assay (viable cell count, trypan blue), Ep-CAM^low cell lines; format: cell-based, human; conditions: VB4-845 10 pM and 5-FU 1-5 μg/ml, 48 h; p>0.05
Description: (A) Expression of Ep-CAM was analyzed by flow cytometry in 8 HCC cell lines. […] Cell growth was measured in MTS assays. […] Columns, alive cells (%); vertical bars, standard deviation.
as §2, with “line. To investigate cell viability, HCC cell lines were seeded in 6-well plates at 1×10^5 cells per well in a total volume of 2 ml of culture media.” for “line.”

CD13 = assay: FACS analysis of stem/progenitor marker CD13 after treatment; format: cell-based, human; conditions: HuH-7 and Hep3B cells
Description: (§5) For flow cytometry, FACSCanto™ II (BD Biosciences, San Jose, Calif.) was used. Cancer cells were washed with phosphate-buffered saline, and then enzymatically dissociated with 0.05% trypsin-EDTA (Invitrogen). The trypsinized cells were suspended in FACS buffer, and analyzed on FACSCanto™ II using FACSDiva software (BD Biosciences). For the analysis of hepatic stem/progenitor markers, primary antibodies against Ep-CAM (#324206; Biolegend, San Diego, Calif.), CD13 (#555394; BD Pharmingen), CD44 (#555479; BD Pharmingen), CD90 (#328110; BioLegend), CD133 (#130-080-801; Miltenyi Biotec, Gladbach, Germany), Mouse IgG1 κtype (#555749; BioLegend), and Mouse IgG2b κtype (#400314; BioLegend) were used. All antibodies were conjugated directly with phycoerythrin (PE). The immunostaining and analysis were performed according to the instructions from the manufacturer.

[2] = system: HuH-7 subcutaneous xenografts; assay: Subcutaneous xenograft model; format: in vivo, NOD.CB17-PRkdcScid/J mice; conditions: three weeks after initiation; VB4-845 30 μg/kg i.v., 5-FU 30 mg/kg i.p., three times a week for 2 weeks
Description: Twenty five-week-old female NOD.CB17-PRkdcScid/J mice purchased from Charles River Laboratory Inc. (Kanagawa, Japan) were injected with 1×10^6 HuH-7 cells mixed with the same amount of Matrigel (BD Biosciences) subcutaneously into the both flanks of mice under anesthesia. […] Tumor size was measured using calipers three times a week and tumor volumes calculated using the following equation: volume=(length)×(width)2×0.5. The mice were sacrificed three weeks after the initiation of treatment.

CD133 = assay: FACS analysis of stem/progenitor marker CD133 after treatment; format: cell-based, human; conditions: HuH-7, HepG2, and Hep3B cells, compared with the control
Description: as §5

SK-Hep1 cells = assay: MTS cell growth assay, SK-Hep1; format: cell-based; conditions: Homo sapiens, 48 h incubation
Description: as §1, §2

HuH-1 = assay: MTS cell growth assay, HuH-1; format: cell-based; conditions: Homo sapiens, 48 h incubation
Description: as §3, §4

## O=c1[nH]cc(F)c(=O)[nH]1 [5-FU, 5-fluorouracil]
HLF
  IC50: 33.5 ± 17.2 µg/mL (≈ 258 µM)
HLE
  IC50: 16.5 ± 6.6 µg/mL (≈ 127 µM)
[1]
  sphere formation by surviving cells: formed spheres
PLC/PRF/5
  IC50: 55.6 ± 11.2 µg/mL (≈ 427 µM)
HepG2
  IC50: 39.5 ± 9.6 µg/mL (≈ 304 µM)
HuH-7
  IC50: 0.8 ± 0.1 µg/mL (≈ 6.15 µM)
Hep3B
  IC50: 5.9 ± 1.8 µg/mL (≈ 45.4 µM)
Ep-CAM^low cell lines
  cell proliferation (alive cells): suppressed cell proliferation to the same extent as the combination of VB4-845 and 5-FU
CD13
  positive rate of CD13: significantly increased
[2]
  volume of tumors: 555±147 mm^3
CD133
  positive rate of CD133: significantly increased
SK-Hep1 cells
  IC50: 4.3 ± 0.5 µg/mL (≈ 33.1 µM)
HuH-1
  IC50: 11.3 ± 6.3 µg/mL (≈ 86.9 µM)
